In US7560105B1, “Dendritic cells activated in the presence of glucocorticoid hormones are capable of suppressing antigen-specific T cell responses” (Leids Universitair Medisch Centrum, priority 1999, dated 2009):

What was measured:
[1] = tested on: human monocyte-derived DC; test: DC surface phenotype by flow cytometry after CD40 ligation; type: cell-based; settings: DEX titration, data not shown
Experimental: Immature DC were generated from peripheral blood monocyte precursors (PBMC). Human PBMC from healthy donors, isolated through Ficoll-Hypaque density centrifugation were plated at 1.5×10^7 per well in 6-well plates (Costar Corp., Cambridge, Mass.) in RPMI 1640 (Life Technologies, Paisley, Scotland) supplemented with 2 mM glutamine, 100 UI/ml penicillin and 10% FCS. After 2 h at 37° C., the nonadherent cells were removed and the adherent cells were cultured in medium containing 500 U/ml IL-4 (Pepro Tech Inc. Rocky Hill, N.J.) and 800 U/ml GM-CSF (kindly provided by Dr S. Osanto, LUMC, Leiden, NL) for a total of 7 days.
Activation of DC though CD40 was performed with a fusion protein made of the extracellular domain of human CD40L and of the murine CD8a chain (CD 8-CD40L). The CD8-CD40L cDNA described by Garrone et al. (23) was transferred into an eukaryotic expression vector containing the hygromycin resistance gene and used for the generation of stably transfected Chinese Hamster Ovary (CHO) cells. […] DC were incubated at 5×10^5/ml/well in a 24-well plate (Costar Corp., Cambridge, Mass.) and activated in the presence of 1/10 CD8-CD40L supernatant. Cells and supernatants were analyzed after 48 h. […]
Cells were stained on ice with FITC or PE-conjugated mouse monoclonal antibodies (MoAb) for 30 min in PBS 1% FCS and were analyzed on a FACScan® (Becton Dickinson, San Jose, Calif.). […]

[2] = tested on: human monocyte-derived DC; test: Cytokine detection by ELISA in DC culture supernatants; type: cell-based; settings: CD40 triggering of DEX-treated DC vs untreated
Experimental: Data are representative from 6 independent experiments.
Activation of DC though CD40 was performed with a fusion protein made of the extracellular domain of human CD40L and of the murine CD8a chain (CD 8-CD40L). The CD8-CD40L cDNA described by Garrone et al. (23) was transferred into an eukaryotic expression vector containing the hygromycin resistance gene and used for the generation of stably transfected Chinese Hamster Ovary (CHO) cells. […] DC were incubated at 5×10^5/ml/well in a 24-well plate (Costar Corp., Cambridge, Mass.) and activated in the presence of 1/10 CD8-CD40L supernatant. Cells and supernatants were analyzed after 48 h. Of note, control supernatants obtained from untransfected CHO cells or from CHO cells transfected with the CD8a cDNA lacked DC activating functions and were similar to culture medium.
Culture supernatants were analyzed in serial two-fold dilutions in duplicate. IL-12p70 was detected using a solid phase sandwich ELISA kit (Diaclone Research, Besancon, France) (sensitivity 3 pg/ml). For IL-12p40 and IFN-g detection, capture MoAb and polyclonal biotinylated detection Ab were obtained from Peter van de Meijde (BPRC, Rijswijk, NL) (sensitivity 10 pg/ml). IL-10 was detected using the Pelikine compact human IL-10 ELISA kit (CLB, Amsterdam, NL) (sensitivity 3 pg/ml).

In the case of `C[C@@H]1C[C@H]2[C@@H]3CCC4=CC(=O)C=C[C@]4(C)[C@@]3(F)[C@@H](O)C[C@]2(C)[C@@]1(O)C(=O)CO` [DEX, dexamethasone], the CD40-mediated phenotypic changes ([1]; 10^-9 M) is reported as “no effect”, the CD40-mediated phenotypic changes ([1]; 10^-10) is reported as “no effect” and the “enhancement of IL-10 production” value [2] is reported as “up to 50 fold”. The “reduction of IL-12p40 production” value [2] was “up to 100 fold”.
